Counter-ions that a name gives are not always drawn. Blank lines part the entries; values can stand above or below the compound they belong to.
How the values were obtained:
[1] = biological target: isolated recombinant JAK2 kinase domain (Homo sapiens (Human), UniProt O60674); experiment: JAK2 enzyme assay (Caliper LabChip, peptide phosphorylation); assay type: biochemical; conditions: 25 μM ATP
[2] = tested on: JAK1-dependent STAT6 phosphorylation downstream of IL-13 stimulation in TF-1 human erythroleukemia cells; experiment: JAK1 pathway assay in TF-1 cells (IL-13-pSTAT6, MSD); assay type: cell-based; conditions: Homo sapiens, TF-1, TF-1 cells, read-out: IL13-pSTAT6 EC50_TF-1
Outline: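 Compound preincubation lasted 1 hr for BEAS-2B cells in complete growth medium and 30 min for GM-CSF-starved TF-1 cells in serum-free medium. EC50 values were determined.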

[3] = biological target: isolated recombinant JAK1 kinase domain (Homo sapiens (Human), UniProt P23458); experiment: JAK1 enzyme assay (Caliper LabChip, peptide phosphorylation); assay type: biochemical; conditions: isolated recombinant JAK1 kinase domain, 25 μM ATP
Sequence of isolated recombinant JAK1 kinase domain (P23458 875-1153): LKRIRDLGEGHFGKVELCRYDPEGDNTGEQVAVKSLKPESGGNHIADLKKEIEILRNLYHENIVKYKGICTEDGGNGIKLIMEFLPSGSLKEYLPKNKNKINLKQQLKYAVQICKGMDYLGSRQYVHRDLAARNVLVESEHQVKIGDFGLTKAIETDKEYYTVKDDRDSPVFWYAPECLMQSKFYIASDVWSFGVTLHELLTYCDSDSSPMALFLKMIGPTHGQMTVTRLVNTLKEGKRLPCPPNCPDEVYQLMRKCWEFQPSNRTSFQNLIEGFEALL

Sequence of isolated recombinant JAK2 kinase domain (O60674 849-1124): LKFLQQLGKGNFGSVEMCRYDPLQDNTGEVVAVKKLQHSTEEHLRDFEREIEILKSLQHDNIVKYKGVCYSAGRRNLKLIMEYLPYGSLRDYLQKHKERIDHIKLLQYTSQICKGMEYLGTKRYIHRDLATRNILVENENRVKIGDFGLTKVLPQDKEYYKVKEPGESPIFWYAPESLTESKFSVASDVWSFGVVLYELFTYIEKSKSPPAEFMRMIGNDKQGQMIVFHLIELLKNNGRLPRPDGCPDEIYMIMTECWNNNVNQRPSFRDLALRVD

SMILES: CN1C[C@@H]2[C@H](C1)[C@H](CO)N(C(=O)Cn1cc(NC(=O)c3cnn4cccnc34)c(-c3cc(Cl)ccc3OC(F)F)n1)[C@@H]2c1ccccc1 [Example 37, N-[1-[2-[(3aS,4S,6R,6aR)-6-(hydroxymethyl)-2-methyl-4-phenyl-1,3,3a,4,6,6a-hexahydropyrrolo[3,4-c]pyrrol-5-yl]-2-oxo-ethyl]-3-[5-chloro-2-(difluoromethoxy)phenyl]pyrazol-4-yl]pyrazolo[1,5-a]pyrimidine-3-carboxamide]
Ki [1]: 0.78 nM
EC50 [2]: 11.8 nM
Ki [3]: 1.1 nM

SMILES: CNC(=O)CN1CCC(n2cc(NC(=O)c3cnn4cccnc34)c(-c3cc(Cl)ccc3OC(F)F)n2)CC1 [Example 157, N-[3-[5-chloro-2-(difluoromethoxy)phenyl]-1-[1-[2-(methylamino)-2-oxo-ethyl]-4-piperidyl]pyrazol-4-yl]pyrazolo[1,5-a]pyrimidine-3-carboxamide]
Ki [1]: 0.75 nM
EC50 [2]: 9.2 nM
Ki [3]: 1.32 nM

SMILES: O=C(Nc1cn(CC(=O)N2CCC[C@H]2C(O)CO)nc1-c1cc(Cl)ccc1OC(F)F)c1cnn2cccnc12 (stereo partly drawn) [Example 267, N-[3-[5-chloro-2-(difluoromethoxy)phenyl]-1-[2-[(2S)-2-(1,2-dihydroxyethyl)pyrrolidin-1-yl]-2-oxo-ethyl]pyrazol-4-yl]pyrazolo[1,5-a]pyrimidine-3-carboxamide]
Ki [1]: 0.62 nM
EC50 [2]: 35.8 nM
Ki [3]: 0.66 nM

SMILES: CCNC(=O)CCCN1CCC(n2cc(NC(=O)c3cnn4cccnc34)c(-c3cc(Cl)ccc3OC(F)F)n2)CC1 [Example 156, N-[3-[5-chloro-2-(difluoromethoxy)phenyl]-1-[1-[4-(ethylamino)-4-oxo-butyl]-4-piperidyl]pyrazol-4-yl]pyrazolo[1,5-a]pyrimidine-3-carboxamide]
Ki [1]: 0.19 nM
EC50 [2]: 31.8 nM
Ki [3]: 1.53 nM

SMILES: CN(C)C1CCN(C(=O)c2ccc(-n3cc(NC(=O)c4cnn5cccnc45)c(-c4cc(Cl)ccc4OC(F)F)n3)cc2)CC1 [Example 302, Pyrazolo[1,5-a]pyrimidine-3-carboxylic acid {3-(5-chloro-2-difluoromethoxy-phenyl)-1-[4-(4-dimethylamino-piperidine-1-carbonyl)-phenyl]-1H-pyrazol-4-yl}-amide hydrochloride]
Ki [1]: 1.11 nM
EC50 [2]: 16.2 nM
Ki [3]: 0.6 nM

SMILES: O=C(Nc1cn(CC(=O)N2CC[C@H]3CNC[C@H]3C2)nc1-c1cc(Cl)ccc1OC(F)F)c1cnn2cccnc12 [Example 21, N-[1-[2-[(3aS,7aR)-1,2,3,3a,4,6,7,7a-octahydropyrrolo[3,4-c]pyridin-5-yl]-2-oxo-ethyl]-3-[5-chloro-2-(difluoromethoxy)phenyl]pyrazol-4-yl]pyrazolo[1,5-a]pyrimidine-3-carboxamide]
Ki [1]: 1.16 nM
EC50 [2]: 3040 nM
Ki [3]: 0.47 nM

SMILES: CCCCOc1ccc(CN(C)C2CCN(C(=O)Cn3cc(NC(=O)c4cnn5cccnc45)c(-c4cc(Cl)ccc4OC(F)F)n3)CC2)cc1 [Example 127, N-[1-[2-[4-[(4-butoxyphenyl)methyl-methyl-amino]-1-piperidyl]-2-oxo-ethyl]-3-[5-chloro-2-(difluoromethoxy)phenyl]pyrazol-4-yl]pyrazolo[1,5-a]pyrimidine-3-carboxamide]
Ki [1]: 2.44 nM
EC50 [2]: 72.4 nM
Ki [3]: 0.78 nM

SMILES: CN1CC[C@@H]2CN(C(=O)Cn3cc(NC(=O)c4cnn5cccnc45)c(-c4cc(Cl)ccc4OC(F)F)n3)C[C@@H]2C1 [Example 49, N-[1-[2-[(3aS,7aS)-5-methyl-3,3a,4,6,7,7a-hexahydro-1H-pyrrolo[3,4-c]pyridin-2-yl]-2-oxo-ethyl]-3-[5-chloro-2-(difluoromethoxy)phenyl]pyrazol-4-yl]pyrazolo[1,5-a]pyrimidine-3-carboxamide]
Ki [1]: 0.96 nM
EC50 [2]: 11.3 nM
Ki [3]: 0.5 nM

SMILES: CN(CC1(C#N)CCCCC1)C1CCN(C(=O)Cn2cc(NC(=O)c3cnn4cccnc34)c(-c3cc(Cl)ccc3OC(F)F)n2)CC1 [Example 114, N-[3-[5-chloro-2-(difluoromethoxy)phenyl]-1-[2-[4-[(1-cyanocyclohexyl)methyl-methyl-amino]-1-piperidyl]-2-oxo-ethyl]pyrazol-4-yl]pyrazolo[1,5-a]pyrimidine-3-carboxamide]
Ki [1]: 1.34 nM
EC50 [2]: 15.3 nM
Ki [3]: 0.52 nM

SMILES: CN(C)C1CCN(C(=O)Cn2cc(NC(=O)c3c(N)nn4cccnc34)c(-c3cc(Cl)ccc3OC(F)F)n2)CC1 [Example 139, 2-amino-N-[3-[5-chloro-2-(difluoromethoxy)phenyl]-1-[2-[4-(dimethylamino)-1-piperidyl]-2-oxo-ethyl]pyrazol-4-yl]pyrazolo[1,5-a]pyrimidine-3-carboxamide]
Ki [1]: 0.36 nM
EC50 [2]: 40.2 nM
Ki [3]: 0.78 nM

SMILES: O=C(Nc1cn(CC(=O)N2CCC(N(Cc3ccccc3)CC(F)(F)F)CC2)nc1-c1cc(Cl)ccc1OC(F)F)c1cnn2cccnc12 [Example 116, N-[1-[2-[4-[benzyl(2,2,2-trifluoroethyl)amino]-1-piperidyl]-2-oxo-ethyl]-3-[5-chloro-2-(difluoromethoxy)phenyl]pyrazol-4-yl]pyrazolo[1,5-a]pyrimidine-3-carboxamide]
Ki [1]: 7.04 nM
EC50 [2]: 23.3 nM
Ki [3]: 3.76 nM

SMILES: CN1CCCC(n2cc(NC(=O)c3c(N)nn4cccnc34)c(-c3cc(Cl)ccc3OC(F)F)n2)CC1 (stereo not drawn) [Example 172, 2-amino-N-[3-[5-chloro-2-(difluoromethoxy)phenyl]-1-(1-methylazepan-4-yl)pyrazol-4-yl]pyrazolo[1,5-a]pyrimidine-3-carboxamide]
Ki [1]: 0.15 nM
EC50 [2]: 15.9 nM
Ki [3]: 0.88 nM

SMILES: CN(C)C[C@@H]1CCCN(C(=O)Cn2cc(NC(=O)c3c(N)nn4cccnc34)c(-c3cc(Cl)ccc3OC(F)F)n2)C1 [Example 82, 2-amino-N-[3-[5-chloro-2-(difluoromethoxy)phenyl]-1-[2-[(3S)-3-[(dimethylamino)methyl]-1-piperidyl]-2-oxo-ethyl]pyrazol-4-yl]pyrazolo[1,5-a]pyrimidine-3-carboxamide]
Ki [1]: 0.53 nM
EC50 [2]: 8.7 nM
Ki [3]: 1.17 nM

The remaining compounds from weak to strong by Ki [1], led by results:

Ki [1]: 3.76 nM
EC50 [2]: 184 nM
Ki [3]: 5.05 nM
SMILES: CN(Cc1ccccc1)C1CCN(c2nc(-c3cc(Cl)ccc3OC(F)F)c(NC(=O)c3cnn4cccnc34)s2)CC1 [Example 201, N-[2-[4-[benzyl(methyl)amino]-1-piperidyl]-4-[5-chloro-2-(difluoromethoxy)phenyl]thiazol-5-yl]pyrazolo[1,5-a]pyrimidine-3-carboxamide]

Ki [1]: 3.66 nM
EC50 [2]: 43.1 nM
Ki [3]: 2.47 nM
SMILES: CCCCN(CCOc1ccc(C)cc1)C1CCN(C(=O)Cn2cc(NC(=O)c3cnn4cccnc34)c(-c3cc(Cl)ccc3OC(F)F)n2)CC1 [Example 108, N-[1-[2-[4-[butyl-[2-(4-methylphenoxy)ethyl]amino]-1-piperidyl]-2-oxo-ethyl]-3-[5-chloro-2-(difluoromethoxy)phenyl]pyrazol-4-yl]pyrazolo[1,5-a]pyrimidine-3-carboxamide]

Ki [1]: 2.15 nM
EC50 [2]: 30.6 nM
Ki [3]: 1.19 nM
SMILES: CN(Cc1cccc(Oc2ccccc2)c1)C1CCN(C(=O)Cn2cc(NC(=O)c3cnn4cccnc34)c(-c3cc(Cl)ccc3OC(F)F)n2)CC1 [Example 113, N-[3-[5-chloro-2-(difluoromethoxy)phenyl]-1-[2-[4-[methyl-[(3-phenoxyphenyl)methyl]amino]-1-piperidyl]-2-oxo-ethyl]pyrazol-4-yl]pyrazolo[1,5-a]pyrimidine-3-carboxamide]

Ki [1]: 1.47 nM
EC50 [2]: 19.3 nM
Ki [3]: 0.56 nM
SMILES: CN1CCC2(CCN(C(=O)Cn3cc(NC(=O)c4cnn5cccnc45)c(-c4cc(Cl)ccc4OC(F)F)n3)CC2)C1 [Example 224, N-[3-[5-chloro-2-(difluoromethoxy)phenyl]-1-[2-(2-methyl-2,8-diazaspiro[4.5]decan-8-yl)-2-oxo-ethyl]pyrazol-4-yl]pyrazolo[1,5-a]pyrimidine-3-carboxamide]

Ki [1]: 1.31 nM
EC50 [2]: 23.3 nM
Ki [3]: 0.95 nM
SMILES: CN(CCc1ccc(O)cc1)C1CCN(C(=O)Cn2cc(NC(=O)c3cnn4cccnc34)c(-c3cc(Cl)ccc3OC(F)F)n2)CC1 [Example 90, N-[3-[5-chloro-2-(difluoromethoxy)phenyl]-1-[2-[4-[2-(4-hydroxyphenyl)ethyl-methyl-amino]-1-piperidyl]-2-oxo-ethyl]pyrazol-4-yl]pyrazolo[1,5-a]pyrimidine-3-carboxamide]

Ki [1]: 1.13 nM
EC50 [2]: 335 nM
Ki [3]: 1.14 nM
SMILES: O=C(Nc1cn(CC(=O)N2C[C@H]3CN(CCCO)C[C@H]3C2)nc1-c1cc(Cl)ccc1OC(F)F)c1cnn2cccnc12 [Example 14, N-[1-[2-[(3aR,6aS)-2-(3-hydroxypropyl)-1,3,3a,4,6,6a-hexahydropyrrolo[3,4-c]pyrrol-5-yl]-2-oxo-ethyl]-3-[5-chloro-2-(difluoromethoxy)phenyl]pyrazol-4-yl]pyrazolo[1,5-a]pyrimidine-3-carboxamide]

Ki [1]: 0.69 nM
EC50 [2]: 9.4 nM
Ki [3]: 0.54 nM
SMILES: CN(C)C1CCN(C(=O)Cn2cc(NC(=O)c3cnn4cccnc34)c(-c3cc(Cl)ccc3OC(F)F)n2)C1 (stereo not drawn) [Example 65, N-[3-[5-chloro-2-(difluoromethoxy)phenyl]-1-[2-[3-(dimethylamino)pyrrolidin-1-yl]-2-oxo-ethyl]pyrazol-4-yl]pyrazolo[1,5-a]pyrimidine-3-carboxamide]

Ki [1]: 0.18 nM
EC50 [2]: 19.7 nM
Ki [3]: 0.53 nM
SMILES: Nc1nn2cccnc2c1C(=O)Nc1cn(C2CCN(CCCC(=O)NCc3ccccc3)CC2)nc1-c1cc(Cl)ccc1OC(F)F [Example 167, 2-amino-N-[1-[1-[4-(benzylamino)-4-oxo-butyl]-4-piperidyl]-3-[5-chloro-2-(difluoromethoxy)phenyl]pyrazol-4-yl]pyrazolo[1,5-a]pyrimidine-3-carboxamide]

— patent publication US9346815B2, “5-chloro-2-difluoromethoxyphenyl pyrazolopyrimidine compounds, compositions and methods of use thereof” (Genentech, Inc., priority 2014, dated 2016)
